Molecular target: Recombinant full length human PFKFB3 (Homo sapiens, UniProt Q16875)
Test: PFKFB3 kinase activity assay (ADP production, ADP-Glo)

Sequence of Recombinant full length human PFKFB3 (Q16875 whole entry): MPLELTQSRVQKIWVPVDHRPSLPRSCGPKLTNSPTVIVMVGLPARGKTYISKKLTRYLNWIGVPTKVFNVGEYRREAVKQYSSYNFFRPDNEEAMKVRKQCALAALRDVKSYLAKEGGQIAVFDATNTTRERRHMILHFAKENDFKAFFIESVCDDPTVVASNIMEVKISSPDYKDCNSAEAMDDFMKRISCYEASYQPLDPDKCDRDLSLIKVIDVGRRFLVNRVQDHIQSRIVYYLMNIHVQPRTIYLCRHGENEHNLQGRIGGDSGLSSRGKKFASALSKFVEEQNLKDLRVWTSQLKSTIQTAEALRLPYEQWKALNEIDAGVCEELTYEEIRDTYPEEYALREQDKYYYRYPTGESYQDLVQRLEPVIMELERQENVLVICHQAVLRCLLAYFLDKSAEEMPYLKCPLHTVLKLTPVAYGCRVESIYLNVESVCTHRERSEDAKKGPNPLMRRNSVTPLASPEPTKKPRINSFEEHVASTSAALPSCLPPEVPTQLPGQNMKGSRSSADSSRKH

| Structure (SMILES) | IC50 [µM] |
| --- | --- |
| COC(=O)c1cc(-c2ccccc2)c(OC)cc1N1C(=O)c2ccc(-c3c[nH]nn3)cc2C1=O [Example 38] | 5 to 20 |
| CN(C)CCOC(=O)c1ccc(-c2ccc(Cl)cc2Cl)cc1NC(=O)c1ccc(C(=O)N=S(C)(C)=O)cc1C(=O)O [Example 49, 2-[(2′,4′-dichloro-4-{[2-(dimethylamino)ethoxy]carbonyl}-[1,1′-biphenyl]-3-yl)carbamoyl]-5-{[dimethyl(oxo)-λ^6-sulfanylidene]carbamoyl}benzoic acid] | < 0.5 |
| CN(C)CCOC(=O)c1ccc2c(c1)C(=O)N(c1cc(-c3ccc(F)c(F)c3)ccc1C(=O)O)C2 [Compound 129, 2-(4-Carboxy-3′,4′-difluorobiphenyl-3-yl)-3-oxo-2,3-dihydro-1H-isoindole-5-carboxylic acid 2-dimethylamino-ethyl ester] | < 20 |
| CS(=O)(=O)NC(=O)c1ccc2c(c1)C(=O)N(c1cc(-c3ccc(F)c(F)c3)ccc1C(=O)OCCN1CCCC1)C2 [Compound 109, 3′,4′-Difluoro-3-(6-methanesulfonylaminocarbonyl-1-oxo-1,3-dihydroisoindol-2-yl)biphenyl-4-carboxylic acid 2-pyrrolidin-1-yl-ethyl ester] | < 20 |
| CCCCS(=O)(=O)NC(=O)c1ccc2c(c1)C(=O)N(c1sc(C)c(-c3ccc(OC)cc3)c1C#N)C2=O [Example 15] | 5 to 20 |
| CC(C)OC(=O)c1ccc(-c2ccc(F)c(F)c2)cc1N1Cc2ccc(CO)cc2C1=O [compound 156, isopropyl 3′,4′-difluoro-3-(6-(hydroxymethyl)-1-oxoisoindolin-2-yl)biphenyl-4-carboxylate] | < 20 |
| NC(=O)c1ccc(-c2ccc(F)c(F)c2)cc1N1Cc2ccc(-c3c[nH]nn3)cc2C1=O [Compound 113, 3′,4′-Difluoro-3-[1-oxo-6-(1H-[1,2,3]triazol-4-yl)-1,3-dihydroisoindol-2-yl]biphenyl-4-carboxylic acid amide] | < 20 |
| O=C(OCC(O)CO)c1ccc(-c2ccccc2)cc1N1C(=O)c2ccc(-c3c[nH]nn3)cc2C1=O (stereo not drawn) [Compound 70, 3-[1,3-Dioxo-5-(1H-[1,2,3]triazol-4-yl)-1,3-dihydroisoindol-2-yl]biphenyl-4-carboxylic acid 2,3-dihydroxy-propyl ester] | 5 to 20 |
| CCOC(=O)c1ccc(-c2ccc(F)c(F)c2)cc1N1Cc2ccc(CO)cc2C1=O [compound 159, ethyl 3′,4′-difluoro-3-(6-(hydroxymethyl)-1-oxoisoindolin-2-yl)biphenyl-4-carboxylate] | < 20 |
| CCCCOC(=O)c1ccc2c(c1)C(=O)N(c1cc(-c3ccc(F)c(F)c3)ccc1C(N)=O)C2 [Compound 123, 2-(4-Carbamoyl-3′,4′-difluorobiphenyl-3-yl)-3-oxo-2,3-dihydro-1H-isoindole-5-carboxylic acid butyl ester] | < 20 |
| O=C(O)c1cc(C(=O)O)c(C(=O)Nc2cc(-c3ccc(F)c(F)c3)ccc2C(=O)O)cc1O [Example 16, 4-({4-carboxy-3′,4′-difluoro-[1,1′-biphenyl]-3-yl}carbamoyl)-6-hydroxybenzene-1,3-dicarboxylic acid] | < 20 |

Other lines, results leading:

| IC50 [µM] | Structure (SMILES) |
| --- | --- |
| < 0.5 | N#Cc1c(N2C(=O)c3ccc(C(=O)O)cc3C2=O)sc(-c2ccccc2)c1-c1ccccc1 [Compound 133, 2-(3-Cyano-4,5-diphenylthiophen-2-yl)-1,3-dioxo-2,3-dihydro-1H-isoindole-5-carboxylic acid] |
| 2 to 5 | CCCCS(=O)(=O)NC(=O)c1ccc2c(c1)C(=O)N(c1ccc(-c3ccccc3)cc1C(=O)O)C2=O [Example 24, 4-[5-(Butane-1-sulfonylaminocarbonyl)-1,3-dioxo-1,3-dihydroisoindol-2-yl]biphenyl-3-carboxylic Acid] |
| < 0.5 | CC1(C)CCC(c2ccc(C(=O)O)c(NC(=O)c3cc(O)c(C(=O)O)cc3C(=O)O)c2)CC1 [Example 52, 4-{[2-carboxy-5-(4,4-dimethylcyclohexyl)phenyl]carbamoyl}-6-hydroxybenzene-1,3-dicarboxylic acid] |
| < 20 | O=C(O)c1ccc2c(c1)C(=O)N(c1cc(-c3ccc(F)c(F)c3)ccc1C(=O)O)C2 [Compound 126, 2-(4-Carboxy-3′,4′-difluoro-biphenyl-3-yl)-3-oxo-2,3-dihydro-1H-isoindole-5-carboxylic acid] |
| 2 to 5 | CN(C)C(=O)c1[nH]nnc1-c1ccc2c(c1)C(=O)N(c1cc(-c3ccc(F)c(F)c3)ccc1C(=O)O)C2 [compound 165, 3-(6-(5-(dimethylcarbamoyl)-1H-1,2,3-triazol-4-yl)-1-oxoisoindolin-2-yl)-3′,4′-difluorobiphenyl-4-carboxylic acid] |
| < 20 | NS(=O)(=O)c1ccc(-c2ccccc2)cc1N1C(=O)c2ccc(-c3c[nH]nn3)cc2C1=O [compound 148, 3-(1,3-dioxo-5-(1H-1,2,3-triazol-4-yl)isoindolin-2-yl)biphenyl-4-sulfonamide] |
| < 20 | CCCCOC(=O)c1ccc2c(c1)C(=O)N(c1cc(OC)c(-c3ccccc3)cc1C(=O)OC)C2=O [Example 39] |
| < 0.5 | COc1ccc(-c2ccc(C(=O)O)c(N3C(=O)c4ccc(C(=O)O)cc4C3=O)c2)cc1F [Compound 144, 2-(4-Carboxy-3′-fluoro-4′-methoxy[1,1′-biphenyl]-3-yl)-1,3-dioxo-2,3-dihydro-1H-isoindole-5-carboxylic acid] |
| < 0.5 | CCOC(=O)c1ccc(-c2ccc(Cl)cc2Cl)cc1NC(=O)c1cc(O)c(C(=O)O)cc1C(=O)O [Example 55, 4-{[2′,4′-dichloro-4-(ethoxycarbonyl)-[1,1′-biphenyl]-3-yl]carbamoyl}-6-hydroxybenzene-1,3-dicarboxylic acid] |
| 2 to 5 | COC(=O)c1ccc(-c2ccccc2)cc1N1C(=O)c2ccc(-c3nnn[nH]3)cc2C1=O [Example 44] |
| < 0.5 | O=C(O)c1ccc(-c2ccc(F)c(F)c2)cc1NC(=O)c1ccc(-c2cnn[nH]2)cc1C(=O)O [Example 22, 3-[2-carboxy-4-(1H-1,2,3-triazol-5-yl)benzamido]-3′,4′-difluoro-[1,1′-biphenyl]-4-carboxylic acid] |
| < 0.5 | CN(C)CCOC(=O)c1ccc(-c2ccccc2)cc1N1C(=O)c2ccc(-c3nnn[nH]3)cc2C1=O [Compound 97, 3-[1,3-Dioxo-5-(1H-tetrazol-5-yl)-1,3-dihydroisoindol-2-yl]biphenyl-4-carboxylic acid 2-dimethylamino-ethyl ester] |
| < 0.5 | O=C(O)c1ccc2c(c1)C(=O)N(c1cc(-c3ccc(F)c(F)c3F)ccc1C(=O)O)C2=O [Compound 139, 2-(4-Carboxy-2′,3′,4′-trifluoro[1,1′-biphenyl]-3-yl)-1,3-dioxo-2,3-dihydro-1H-isoindole-5-carboxylic Acid] |
| 2 to 5 | O=C1c2ccc(-c3c[nH]nn3)cc2C(=O)N1c1cc(-c2ccccc2)cnc1O [Compound 83, 2-(2-Hydroxy-5-phenylpyridin-3-yl)-5-(1H-[1,2,3]triazol-4-yl)-isoindole-1,3-dione] |
| 2 to 5 | O=C(O)c1cc(Cl)c(-c2cnn[nH]2)cc1NC(=O)c1cc(-c2ccc(F)c(F)c2)ccc1C(=O)O [Example 20, 3-((2-carboxy-4-chloro-5-(1H-1,2,3-triazol-5-yl)phenyl)carbamoyl)-3′,4′-difluoro-[1,1′-biphenyl]-4-carboxylic acid] |
| < 0.5 | O=C(O)c1cc(-c2ccccc2)ccc1N1C(=O)c2ccc(-c3nnn[nH]3)cc2C1=O [Compound 94, 4-[1,3-Dioxo-5-(1H-tetrazol-5-yl)-1,3-dihydroisoindol-2-yl]biphenyl-3-carboxylic Acid] |
